Data as given in patent US8470763B2, “Alpha-amino-N-substituted amides, pharmaceutical composition containing them and uses thereof” (Shanghai Institute of Materia Medica Chinese Academy of …, priority 2007, dated 2013).
Like-named read-outs stand apart in the source and are kept apart here.

Columns and labels:
[1] = test system: colon cancer cells HCT116; assay: MTT assay, HCT116 cells; format: cell-based; settings: Homo sapiens, HCT-116, 72 h
Description: (§1) The adhered MDA-MB-4355 cells in logarithmic growth phase, were digested by 0.05% trypsogen, counted and formulated into a cell suspension with a medium. After counted, the suspension was inoculated on a 96-well plate with 3000 cells and 100 μl medium per well. The inoculated 96-well plate was placed overnight in an incubator at 37 with 5% CO2 to allow the cells to adhere to the wall. On the next day, the administration of the drugs started. Before the administration, into some of the control wells, each was added 20 μl of the MTT solution (5 mg/ml) without removing the medium therein. After incubated for 3 h, the absorption at A550/690 was recorded as the initial cell concentration. For the drug wells, each was added into 100 μl of medium containing 2 μl of compound solution. For the control wells which use DMSO as background control, each was also added into 100 μl of medium containing 2 μl of DMSO. In addition, each experiment was carried out with adriamycin as the positive control. Subsequently, the 96-well plate was incubated in an incubator at 37 with 5% CO2 for 72 h. each compound was tested in triplicate wells (6 μl of compound solution was put into a sterilized eppendorf centrifuge tube, then 300 μl of medium was added and mixed well, and the mixture was distributed into 3 wells respectively), and at six concentrations which form a gradient. 3 days (72 h) later, 40 μl of MTT solution (5 mg/ml) was put into each well directly (without sucking off the medium therein), and the plate was incubated in the incubator for 3 h and then taken out. The liquid in each well was sucked off, and then 100 μl of DMSO was put into each well to dissolve the crystal completely with slight shake. The absorbance of the solution in each well was determined at 550/690 nm on an ELISA Reader as the cell density after treated with the compound. The growth inhibition of compound against breast cancer cells MDA-MB-435S was represented by the cell survival rate, and IC50 was determined from the profile of cell survival rate vs compound concentration. The calculating formula was as follows: cell survival rate=[(cells+compound)A550/690/(cells+compound vector DMSO)A550/690]×100%
(§2) MDA-MB-435S: human breast cancer cells; HCT116: colon cancer cells; A549: lung adenocarcinoma cells; Hela: uterine cervix cancer cells.
(§3) The tests were performed in the same manner as that of experimental example 1, except that for Hela cells, after counted, each well was seeded with 1000 cells and 100 μl of medium on a 96-well plate.

[2] = test system: MDA-MB-435S human breast cancer cells; assay: MTT assay, proliferation of MDA-MB-435S cells; format: cell-based; settings: Homo sapiens, 72 h
Description: The experiments for evaluating the antineoplasmic activities of the compounds according to the present invention were carried out, and the compounds' antineoplasmic activities in vitro was evaluated by determining the inhibitory activities thereof against the proliferation of MDA-MB-435S human breast cancer cells.
The antineoplasmic activities were determined by using the MTT assay, which is based on the metabolic reduction of 3-(4,5-dimethylthylthiazol-2-yl)-2,5-diphenyl tetrazolium bromide (MTT). The dehydrogenases, which are related to NADP (niacinamide adenine dinucleotide phosphate, coenzyme) and present in mitochondrions of living cells, can reduce the yellow MTT to an insoluble, dark purple formazan. […] After the formazan is dissolved in DMSO, the optical density is determined on an ELISA Reader at the wavelength of 550/690 nm.
as §1

[3] = test system: lung adenocarcinoma cells A549; assay: MTT assay, A549 cells; format: cell-based; settings: Homo sapiens, 72 h
Description: as §1, §2, §3

[4] = test system: Hela uterine cervix cancer cells; assay: MTT assay, Hela cells; format: cell-based; settings: Homo sapiens, 72 h, 1000 cells per well
Description: as §1, §2, §3

BEL-7402 (Liver Cancer) = assay: SRB assay, BEL-7402; format: cell-based; settings: Homo sapiens, 72 h, read-out: IC50 (μM) (mean ± SD)
Description: (§4) Experimental method: The antineoplasmic activities in vitro of the compounds were determined by SRB assay. The detailed procedure was as follows. The cells in the logarithmic growth phase were inoculated on a 96-well microculture plate with a suitable density (100 μl/well), and allowed to attach overnight, followed by addition of the compound at different concentrations to be treated for 72 h. For each concentration, the test was carried out in triplicate wells, and included control wells containing the aqueous medium of normal saline and a blank well containing all medium without cells for zeroing. After cultured overnight, the cells were treated with the compound at different concentrations for 72 h. After the treatment, the culture medium was removed, and the cells were fixed with 10% (wt/vol) trichloroacetic acid (100 μL/well) at 4° C. for 1 h. The cells were then washed with distilled water for 5 times, and died at room temperature, followed by addition of a SRB solution (4 mg/mL, dissolved in 1% glacial acetic acid) at 100 μL/well. The cells were incubated and stained at room temperature for 15 min, then washed with 1% glacial acetic acid for 5 times to remove the uncombined SRB, and died at room temperature. 100 μL of 10 mM Tris solution was added in each well, and the Optical Density (OD) were measured at a wavelength of 560 nm on a VERSMax ELISA Reader (Molecule Devices). The growth inhibition of the compound against tumor cells was calculated according to the following equation: Growth inhibition (%)=(ODcontrol−ODtreated)/ODcontrol×100%.
(§5) IC50 (the concentration of the sample compound that is required for 50% inhibition of cell growth) was calculated by using the Logit method based on the measurement, and each test was repeated for 3 times to calculate the mean value and standard deviation.

[5] = test system: HPAF-II (Pancreatic Cancer); assay: SRB assay, HPAF-II; format: cell-based; settings: Homo sapiens, 72 h, read-out: IC50 (μM) (mean ± SD)
Description: as §4, §5

HCT-116 (Colon Cancer) = assay: SRB assay, HCT-116; format: cell-based; settings: Homo sapiens, 72 h, read-out: IC50 (μM) (mean ± SD)
Description: as §4, §5

HepG2 (Liver Cancer) = assay: SRB assay, HepG2; format: cell-based; settings: Homo sapiens, 72 h, read-out: IC50 (μM) (mean ± SD)
Description: as §4, §5

[6] = test system: MDA-MB-435 (Breast Cancer); assay: SRB assay, MDA-MB-435; format: cell-based; settings: Homo sapiens, 72 h, read-out: IC50 (μM) (mean ± SD)
Description: as §4, §5

7404 (Liver Cancer) = assay: SRB assay, 7404; format: cell-based; settings: 72 h, read-out: IC50 (μM) (mean ± SD)
Description: as §4, §5

Zip177 (Liver Cancer) = assay: SRB assay, Zip177; format: cell-based; settings: 72 h, read-out: IC50 (μM) (mean ± SD)
Description: as §4, §5

DU145 (Prostatic Cancer) = assay: SRB assay, DU145; format: cell-based; settings: Homo sapiens, DU-145, 72 h, read-out: IC50 (μM) (mean ± SD)
Description: as §4, §5

HMEC (Others) = assay: SRB assay, HMEC; format: cell-based; settings: Homo sapiens, 72 h, read-out: IC50 (μM) (mean ± SD)
Description: as §4, §5

HO-8910 (Ovarian Cancer) = assay: SRB assay, HO-8910; format: cell-based; settings: 72 h, read-out: IC50 (μM) (mean ± SD)
Description: as §4, §5

[7] = test system: SGC-7901 (Gastric Cancer); assay: SRB assay, SGC-7901; format: cell-based; settings: Homo sapiens, 72 h, read-out: IC50 (μM) (mean ± SD)
Description: as §4, §5

A549 (Lung Cancer) = assay: SRB assay, A549; format: cell-based; settings: Homo sapiens, 72 h, read-out: IC50 (μM) (mean ± SD)
Description: as §4, §5

SMMC-7721 (Liver Cancer) = assay: SRB assay, SMMC-7721; format: cell-based; settings: Homo sapiens, 72 h, read-out: IC50 (μM) (mean ± SD)
Description: as §4, §5

[8] = clinical study entered 2001; cited from earlier work
human tumor cells = settings: background; cited from earlier work
[9] = background; cited from earlier work
[10] = test system: heterograft of MDA-MB-4355 human breast cancer cells; settings: background; cited from earlier work
[11] = note: MDA-MB-435S, read-out: IC50 (MDA-MB-435)
[12] = read-out: Cell Survival Rate IC50

Row | IC50 [1] [nM] | IC50 [2, 11] [nM] | IC50 [3] [nM] | IC50 [4] [nM] | IC50 (BEL-7402 (Liver Cancer)) [µM] | IC50 [5] [µM] | IC50 (HCT-116 (Colon Cancer)) [µM] | IC50 (HepG2 (Liver Cancer)) [µM] | IC50 [6] [µM] | IC50 (7404 (Liver Cancer)) [µM] | IC50 (Zip177 (Liver Cancer)) [µM] | IC50 (DU145 (Prostatic Cancer)) [µM] | IC50 (HO-8910 (Ovarian Cancer)) [µM] | IC50 [7] [µM] | IC50 (A549 (Lung Cancer)) [µM] | IC50 (SMMC-7721 (Liver Cancer)) [µM] | SMILES | IC50 [2, 12] [nM] | IC50 (HMEC (Others)) [µM] | further results
1 | 1510 ± 283 | 2830 ± 695 | 594 ± 69 | 822 ± 175 |  |  |  |  |  |  |  |  |  |  |  |  | CO[C@@H](C(=O)N[C@@H](C)C(=O)NCCOC1CCCCC1)[C@H](O)[C@@H](O)[C@H](O)/C=C/C(C)(C)C [Compound L458e] | 2190 |  | 
2 | 130 ± 15 | 541 ± 205 | 219 ± 30 | 188 ± 42 |  |  |  |  |  |  |  |  |  |  |  |  | CO[C@@H](C(=O)N[C@@H](C)C(=O)NCCOC(=O)C1CC=CCC1)[C@H](O)[C@@H](O)[C@H](O)/C=C/C(C)(C)C (stereo partly drawn) [Compound L484] | 540 |  | 
3 | 97 ± 13 | 284 ± 100 | 75 ± 14 | 165 ± 30 |  |  |  |  |  |  |  |  |  |  |  |  | CO[C@@H](C(=O)N[C@@H](C)C(=O)NCCOC(=O)C1CCCCC1)[C@H](O)[C@@H](O)[C@H](O)/C=C/C(C)(C)C [Compound L486d] | 280 |  | 
4 | 71 ± 7 | 398 ± 128 | 76 ± 8 | 158 ± 32 | 0.33 ± 0.21 | 1.57 ± 0.35 | 0.35 ± 0.11 | 0.56 ± 0.08 | 0.08 ± 0.01 | > 20 | 0.4 ± 0.21 | 0.29 ± 0.06 | > 20 | 2.21 ± 0.67 | 0.03 ± 0.01 | 0.65 ± 0.26 | CO[C@@H](C(=O)N[C@@H](C)C(=O)NCCOC(=O)CCc1ccccc1)[C@H](O)[C@@H](O)[C@H](O)/C=C/C(C)(C)C [Compound L508] |  | 0.21 ± 0.02 | 
5 | 51 ± 5 | 201 ± 47 | 98 ± 18 | 24 ± 3 | 0.28 ± 0.01 | 2.01 ± 1.06 | 0.58 ± 0.25 | 1.11 ± 0.49 | 0.14 ± 0.13 | > 20 | 0.26 ± 0.05 | 0.14 ± 0.01 | > 20 | 1.97 ± 0.86 | 0.08 ± 0.02 | 0.41 ± 0.15 | CCOC(=O)C(COC(=O)C1CCCCC1)NC(=O)[C@H](C)NC(=O)[C@H](OC)[C@H](O)[C@@H](O)[C@H](O)/C=C/C(C)(C)C (stereo partly drawn) [Compound L558a] | 200 | 0.25 ± 0.14 | 
6 |  |  |  |  |  |  |  |  |  |  |  |  |  |  |  |  | CCCCCCCCCCCCCC(=O)O[C@H]1CC[C@H](NC(=O)[C@H](OC)[C@H](O)[C@@H](O)[C@H](O)/C=C/C(C)C)C(=O)N(C)C1 [bengamide B] |  |  | activities against human tumor cells in vitro (human tumor cells): nanomolar level; solubility [9]: poor solubility; growth of heterograft in vivo [10]: remarkably depress the growth

Row | SMILES | IC50 [1] [nM] | IC50 [2, 11] [nM] | IC50 [3] [nM] | IC50 [4] [nM] | IC50 (BEL-7402 (Liver Cancer)) [µM] | IC50 [5] [µM] | IC50 (HCT-116 (Colon Cancer)) [µM] | IC50 (HepG2 (Liver Cancer)) [µM] | IC50 [6] [µM] | IC50 (7404 (Liver Cancer)) [µM] | IC50 (Zip177 (Liver Cancer)) [µM] | IC50 (DU145 (Prostatic Cancer)) [µM] | IC50 (HO-8910 (Ovarian Cancer)) [µM] | IC50 [7] [µM] | IC50 (A549 (Lung Cancer)) [µM] | IC50 (SMMC-7721 (Liver Cancer)) [µM] | IC50 [2, 12] [nM] | IC50 (HMEC (Others)) [µM] | further results
7 | CO[C@@H](C(=O)N[C@H]1CC[C@@H](OC(=O)C2CCCCC2)CNC1=O)[C@H](O)[C@@H](O)[C@H](O)/C=C/C(C)(C)C [LAF389, reference compound] |  |  |  |  | 0.56 ± 0.4 | 3.23 ± 2.13 | 0.63 ± 0.18 | 0.21 ± 0.09 | 0.29 ± 0.02 | > 20 | 2.79 ± 0.15 | 0.42 ± 0.21 | > 20 | 4.96 ± 0.4 | 0.05 ± 0.01 | 1.25 ± 0.76 | 610 | 0.83 ± 0.45 | side effects in clinical study [8]: side effects such as taste disturbance, blurred vision; therapeutic effects in clinical study [8]: did not possess the foreseen therapeutic effects; activities against human tumor cells in vitro (human tumor cells): comparable to Bengamide B; solubility [9]: good solubility; growth of heterograft in vivo [10]: comparable to Bengamide B
